For this assay, the target named is T1, GPR6 receptor (Homo sapiens, UniProt P46095).
T1 construct: expressed in transfected cells
The assay is described as follows: Inhibition of cAMP Activity of GPR6 In Vitro Assay (CHO-K1 cells, HTRF cAMP). As to conditions: inhibition of constitutive cAMP activity of GPR6 expressed in CHO-K1 cells, approximate IC50, read-out: IC50. In kind it is cell-based. The procedure, abridged:
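CHO-K1 cells with doxycycline-induced (1 μg/ml, 20 h) GPR6 treated with compounds 45 min at 37 °C in Ringer's buffer (pH 7.4) with 0.5% fatty acid free BSA. Constitutive cAMP measured by Lance HTRF Ultra cAMP; IC50 from four-parameter logistic fit.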

pIC50: −log10 of the molar value. Structures can show the parent of a compound that is named as a salt. Where two headings read alike, the source gives them in different places.

T1 sequence (P46095 whole entry): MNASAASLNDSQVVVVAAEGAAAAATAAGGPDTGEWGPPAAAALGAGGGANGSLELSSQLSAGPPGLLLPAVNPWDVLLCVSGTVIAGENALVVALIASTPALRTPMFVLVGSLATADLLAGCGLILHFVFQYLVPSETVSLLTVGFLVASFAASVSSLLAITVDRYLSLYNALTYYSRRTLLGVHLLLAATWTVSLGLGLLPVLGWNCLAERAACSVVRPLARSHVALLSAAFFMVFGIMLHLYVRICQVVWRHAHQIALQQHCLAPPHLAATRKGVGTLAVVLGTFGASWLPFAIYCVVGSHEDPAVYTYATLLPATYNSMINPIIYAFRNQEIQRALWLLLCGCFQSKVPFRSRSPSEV

With “N-ethyl-3-(4-(2-fluoro-4-methoxyphenoxy)piperidin-1-yl)pyrido[3,4-b]pyrazin-2-amine, 2,2,2-trifluoroacetic acid salt [Cpd 622]”, where the note is “compounds of Compound Table 1”, the pIC50 is 7.54.
With `CC(C)C1CN(c2nc3ccccc3nc2NC2CC2)CCN1Cc1cc(Cl)ccc1Cl` (stereo not drawn) [Compound Table 2: Cpd 9, N-cyclopropyl-3-(4-(2,5-dichlorobenzyl)-3-isopropylpiperazin-1-yl)quinoxalin-2-amine], the pIC50 (compounds of Compound Table 2) was 4.75.
“(1-(2-(cyclopropylamino)pyrido[3,4-b]pyrazin-3-yl)piperidin-4-yl)(2,4,6-trifluorophenyl)methanone, 2,2,2-trifluoroacetic acid salt [Cpd 444]”: the pIC50 (compounds of Compound Table 1) is 6.70.
Turning to `CC(C)CNc1nc2ccccc2nc1N1CCN(Cc2cc(Cl)ccc2Cl)CC1` [Cpd 110, 3-(4-(2,5-dichlorobenzyl)piperazin-1-yl)-N-isobutylquinoxalin-2-amine, 2,2,2-trifluoroacetic acid salt], for the setting “compounds of Compound Table 1”, the pIC50 was 5.22.
The same measure, in the same setting: for `C[C@@H]1C[C@H]1Nc1nc2cnncc2nc1N1CCC([C@@H](F)c2ccc(F)cc2F)CC1` [Cpd 645, 3-(4-((R)-(2,4-difluorophenyl)fluoromethyl)piperidin-1-yl)-N-((1R,2R)-2-methylcyclopropyl)pyrazino[2,3-d]pyridazin-2-amine, 2,2,2-trifluoroacetic acid salt] the value was 6.84; for `N#Cc1ccc2nc(NC3CC3)c(N3CCC(C(F)c4cc(F)ccc4F)CC3)nc2c1` (stereo not drawn) [Cpd 471], 7.12.
Same read-out and setting: the result for `COCCCNc1nc2ccccc2nc1N1CCN(Cc2cc(Cl)ccc2Cl)CC1` [Cpd 66, 3-(4-(2,5-dichlorobenzyl)piperazin-1-yl)-N-(3-methoxypropyl)quinoxalin-2-amine] reads 5.71.
Turning to “(4-chlorophenyl)(1-(2-(cyclopropylamino)pyrido[3,4-b]pyrazin-3-yl)piperidin-4-yl)methanone, 2,2,2-trifluoroacetic acid salt [Cpd 430]”, the pIC50 (compounds of Compound Table 1) is 5.96.
Turning to `CC(C)Nc1nc2cnncc2nc1N1CCC(Oc2ccc(Cl)cc2F)CC1` [Cpd 644, 3-(4-(4-chloro-2-fluorophenoxy)piperidin-1-yl)-N-isopropylpyrazino[2,3-d]pyridazin-2-amine, 2,2,2-trifluoroacetic acid salt], the pIC50 (compounds of Compound Table 1) is 8.15.
As to “4-((1-(3-(cyclopropylamino)pyrazino[2,3-d]pyridazin-2-yl)piperidin-4-yl)oxy)-3-fluorophenol [Cpd 623]”, the pIC50 (compounds of Compound Table 1) was 7.41.
Still for that read-out and setting: the result for “2-((2,2-difluoroethyl)amino)-3-(4-(2,4-difluorophenoxy)piperidin-1-yl)pyrido[3,4-b]pyrazine-7-carbonitrile, 2,2,2-trifluoroacetic acid salt [Cpd 646]” reads 6.27; that for “3-(4-(2-fluoro-4-methoxybenzyl)piperidin-1-yl)-N-isopropylpyrazino[2,3-d]pyridazin-2-amine, 2,2,2-trifluoroacetic acid salt [Cpd 642]”, 7.27; that for “(R)-7-chloro-N-cyclopropyl-3-(4-((2,4-difluorophenyl)fluoromethyl)piperidin-1-yl)pyrido[3,4-b]pyrazin-2-amine, 2,2,2-trifluoroacetic acid salt [Cpd 523]”, 6.47.
Same read-out and setting: the result for “(S)—N-(sec-butyl)-3-(4-(2-fluoro-4-methoxyphenoxy)piperidin-1-yl)pyrazino[2,3-d]pyridazin-2-amine, 2,2,2-trifluoroacetic acid salt [Cpd 637]” reads 7.59; that for “N-cyclopropyl-3-(4-(2,4-difluorobenzyl)piperidin-1-yl)-6-fluoroquinoxalin-2-amine, 2,2,2-trifluoroacetic acid salt [Cpd 479]”, 6.85.
As to “(2-(cyclopropylamino)-3-(4-(2-fluoro-4-methoxyphenoxy)piperidin-1-yl)pyrido[3,4-b]pyrazin-7-yl)(4-methylpiperazin-1-yl)methanone [Cpd 603]”, the pIC50 (compounds of Compound Table 1) is 5.99.
On the same count and under the same terms, for “3-(4-((5-chloro-2-fluorophenyl)fluoromethyl)piperidin-1-yl)-N-cyclopropylpyrido[3,4-b]pyrazin-2-amine [Cpd 452]” the value was 7.68; for `O=C(c1ccsc1Cl)C1CCN(c2nc3cnccc3nc2NC2CC2)CC1` [Cpd 572, (2-chlorothiophen-3-yl)(1-(2-(cyclopropylamino)pyrido[3,4-b]pyrazin-3-yl)piperidin-4-yl)methanone, hydrogen chloride salt], 7.68.
On the same count and under the same terms, for “2-(cyclopropylamino)-3-(4-((2,5-dimethoxyphenyl)sulfonyl)piperazin-1-yl)quinoxaline-6-carbonitrile, 2,2,2-trifluoroacetic acid salt [Cpd 329]” the value was 5.89; for “8-bromo-N-cyclopropyl-3-(4-(2,5-dichlorobenzyl)piperazin-1-yl)quinoxalin-2-amine, 2,2,2-trifluoroacetic acid salt [Cpd 133]”, 7.49.
In the case of “N-cyclopropyl-3-(4-((4-fluorophenyl)sulfonyl)piperazin-1-yl)pyrido[3,4-b]pyrazin-2-amine, 2,2,2-trifluoroacetic acid salt [Cpd 288]”, where the note is “compounds of Compound Table 1”, the pIC50 is 5.58.
On the same count and under the same terms, for “3-(4-(5-cyano-2-(dimethylcarbamoyl)benzoyl)piperidin-1-yl)-2-(cyclopropylamino)-N,N-dimethylpyrido[3,4-b]pyrazine-7-carboxamide [Cpd 596]” the value was 7.59.
Regarding `Clc1cc(CN2CCN(c3nc4ccccc4nc3NC3CC3)CC2)c(Cl)s1` [Cpd 99, N-cyclopropyl-3-(4-((2,5-dichlorothiophen-3-yl)methyl)piperazin-1-yl)quinoxalin-2-amine, 2,2,2-trifluoroacetic acid salt], the pIC50 (compounds of Compound Table 1) is 5.22.
In the case of “N-cyclopropyl-3-(4-((2,4-difluorophenyl)difluoromethyl)piperidin-1-yl)pyrido[3,4-b]pyrazin-2-amine [Cpd 545]”, the pIC50 (compounds of Compound Table 1) is 7.35.
Take “3-(4-(2,4-difluorobenzyl)piperidin-1-yl)-2-(isopropylamino)quinoxaline-6-carbonitrile [Cpd 461]”: for the setting “compounds of Compound Table 1”, the pIC50 was 7.70.
The same measure, in the same setting: the result for “N-cyclopropyl-3-(4-((2,4-difluorophenyl)fluoromethyl)piperidin-1-yl)-7-methylpyrido[3,4-b]pyrazin-2-amine, 2,2,2-trifluoroacetic acid salt [Cpd 488]” reads 7.54; that for “3-(4-(3-bromo-4-fluorobenzoyl)piperazin-1-yl)-2-(cyclopropylamino)quinoxaline-6-carbonitrile, 2,2,2-trifluoroacetic acid salt [Cpd 256]”, 6.42.
Same read-out and setting: the result for `Cc1cccc(CN2CCN(c3nc4ccccc4nc3NC3CC3)CC2)c1` [Cpd 1, N-cyclopropyl-3-(4-(3-methylbenzyl)piperazin-1-yl)quinoxalin-2-amine, 2,2,2-trifluoroacetic acid salt] reads 4.75; that for “(1-(2-(cyclopropylamino)pyrido[3,4-b]pyrazin-3-yl)piperidin-4-yl)(3-methoxyphenyl)methanone [Cpd 564]”, 4.96; that for “2-(cyclopropylamino)-3-(4-(2-fluoro-4-methoxybenzyl)piperazin-1-yl)-N,N-dimethylpyrido[3,4-b]pyrazine-7-carboxamide, 2,2,2-trifluoroacetic acid salt [Cpd 614]”, 7.18.

(Values after patent US9770452B2, “Quinoxaline derivatives as GPR6 modulators” (Takeda Pharmaceutical Company Limited, priority 2012, dated 2017).)
